How the values were obtained:
[1] = tested on: cuttings from 12-day old bean plants; experiment: Root formation in bean cuttings planted in treated vermiculite; format: in vivo; conditions: for Average dry wt (grams) of root mass (14 days after treatment): 10 cuttings per treatment
Protocol: Legend to Table I. Ten (10) cuttings were used per treatment. Cuttings were obtained from 12-day old bean plants by excising each plant above the cotyledonery node. The cuttings were planted in vermiculite treated with various concentrations of the indicated compounds. Fourteen days after treatment, the portion of the cutting subtending the root mass was removed and dried for 48 hrs. at 50° C.

[2] = tested on: explants of Nicotiana tobaccum, Ficus benjamina, Kalanchoe, and Hosta; experiment: Stage II (multiplication) micropropagation of explants; format: cell-based
From the text: MO produced an equivalent amount of growth at 10^−8 M and maximal growth at 10^−7 M.
Stage II and Stage III micropropagation of various plant species using IAA or MO as auxin source. Explants were placed in various concentrations of sterilized IAA or MO formulated in sterilized agar/mineral salts/kinnin media.

[3] = tested on: Parenchyma tissue from heads of romaine lettuce; experiment: Formation of callus tissue in lettuce parenchyma sections; format: cell-based; conditions: 7 days at 26 degrees in the dark, average initial weight 0.04 g
From the text: Note: Parenchyma tissue was obtained from heads of romaine lettuce. Cylinders measuring 5 mm in diameter and 20 mm in length were removed with a cork borer from the stalks of lettuce heads. The cylinders were sterilized in a 10% solution of commercial bleach (sodium hypochlorite). Three (3) mm wide circular sections were removed from the sterilized cylinders and 10 sections were placed in petri dishes containing various concentrations of auxins and MO formulated in sterilized agar/mineral salts/kinin media. The sections were incubated at 26 degrees in the dark for seven (7) days. At the end of the incubation period, the callus tissue in each treatment was weighed and the average weight of each section was recorded. The average initial weight of the sections was 0.04 g.

[4] = tested on: explants of various plant species; experiment: Stage III (rooting) micropropagation of explants; format: cell-based; conditions: Stage III (rooting) medium
From the text: Stage III micropropagation of various plant species using IAA or MO as auxin source. Explants were placed in various concentrations of sterilized IAA or MO formulated in sterilized agar/mineral salts/kinnin media

[5] = tested on: cuttings from tomatoes, begonias, African violets, roses, soybeans and peas; experiment: Root formation in cuttings from various plants; format: in vivo
From the text: Use of MO and its solutions prepared by novel methods for stimulation of root formation in plant cuttings and as replacement for IAA or synthetic auxins in plant tissue culture. […] Refer to FIG. 2 for typical response of cuttings to test compounds and Table I for data summary.

[6] = tested on: plants; experiment: Physiological (auxin) responses of plants compared with IAA; conditions: MO obtained from purified 3-Brox
From the text: It is well known that at suitable concentrations, IAA can stimulate the growth of excised stem segments, promote root development in cuttings, and in combination with another group of plant growth substances known as kinins, can regenerate intact plants from single cells or meristematic tissue.

[7] = tested on: hardwood trees; experiment: Wound healing (callus formation) on sawed-off branches of hardwood trees, lanolin paste; format: in vivo; conditions: final concentration 10^−5M, compared with IAA
From the text: Use of pure solutions of MO to stimulate healing in plants by aiding in the formation of callus tissue at the wound site. This would have the prophylactic effect of preventing infection in wounded trees. Application of MO in a solution, gel or lanolin paste preparation induces rapid formation of protective callus tissue. Refer to Table II for data summary. Large branches of hardwood trees were sawed off and treated with either IAA or MO prepared in lanolin paste.

[8] = tested on: Hosta; experiment: Micropropagation of Hosta in Stage I, II and III media; format: cell-based
From the text: Photographic evidence showing the comparative response of explants to IAA and MO in Stage II and Stage III growth media is available on request. A description of the photos is provided herein.

[9] = Stage II (multiplication) medium

Row | Compound | Emergence of roots (No. of days after treatment) ([1]; 10^−4M) [days] | Average dry wt (grams) of root mass (14 days after treatment) ([1]; 10^−4M) [grams] | Emergence of roots (No. of days after treatment) ([1]; 10^−5M) [days] | Average dry wt (grams) of root mass (14 days after treatment) ([1]; 10^−5M) [grams] | Emergence of roots (No. of days after treatment) ([1]; 10^−6M) [days] | Average dry wt (grams) of root mass (14 days after treatment) ([1]; 10^−6M) [grams] | concentration required to produce maximal growth [2, 9] | Weight in grams of Callus tissue ([3]; 10^−4 moles/L) [g] | Weight in grams of Callus tissue ([3]; 10^−5 moles/L) [g] | Weight in grams of Callus tissue ([3]; 10^−6 moles/L) [g] | Weight in grams of Callus tissue ([3]; 10^−7 moles/L) [g] | Weight in grams of Callus tissue ([3]; 10^−8 moles/L) [g] | also measured
1 | O=C(O)Cc1c[nH]c2ccccc12 [IAA, Indole-3-acetic acid] | 7 | 8 | 7 | 10 | 9 | 7 | 10^−5 M | 0.08 | 0.25 | 1.2 | 0.80 | 0.40 | –
2 | O=C(O)CCCc1c[nH]c2ccccc12 [IBA, indolebutyric acid] | 9 | 5 | – | 7 | 5 | 7 | – | 0.05 | 0.18 | 0.70 | 0.55 | 0.12 | –
3 | C=C1C(=O)Nc2ccccc21 [MO, 3-methyleneoxindole] | – | – | – | – | 4 | 11 | 10^−7 M | 0.02 | 0.15 | 1.5 | 1.95 | 1.75 | Emergence of roots (No. of days after treatment) ([1]; 10^−7M): 4 days; Average dry wt (grams) of root mass (14 days after treatment) ([1]; 10^−7M): 13 grams; Emergence of roots (No. of days after treatment) ([1]; 10^−8M): 6 days; Average dry wt (grams) of root mass (14 days after treatment) ([1]; 10^−8M): 10 grams; concentration producing growth equivalent to IAA at its most effective concentration [2, 9]: 10^−8 M; fold more effective than IAA and the synthetic auxins ([2]; Stage II medium): 1,000 fold; fold more effective than IAA and the synthetic auxins [4]: 1,000 fold; root formation compared with IAA, napthaleneacetic acid and indolebutyric acid [5]: more profuse roots in a much shorter time and at significantly lower concentrations; fold as effective as IAA in eliciting physiological responses [6]: 100-1000 fold; healing of wound by callus formation [7]: healed rapidly by forming callus tissue over the wound; effectiveness compared with synthetic auxins [8]: far more effective than the synthetic auxins
4 | O=C(O)Cc1cccc2ccccc12 [NAA, napthaleneacetic acid] | 8 | 5 | 9 | 7 | 8 | 2 | – | 0.06 | 0.15 | 0.85 | 0.60 | 0.20 | –
